Where two headings read alike, the source gives them in different places.
Legend:
[1] = tested on: wild-type L. monocytogenes EGD-e; assay: Disinfection tolerance, wild-type strain; assay type: cell-based, Listeria monocytogenes; settings: sodium hypochlorite 1600 ppm, 10 min, room temperature; HTM-grown cultures
Description: FIGS. 6A-6D: Role of the c-di-GMP-induced EPS in biofilm formation, cell aggregation, and tolerance of L. monocytogenes to disinfectants and desiccation. […] Cultures were grown for 6 days at 30° C. in LB (top panel) or LB supplemented with 3% glycerol (bottom panel). Shown are average results from two biological replicates, where each strain was grown in six wells in a replicate (i.e., six technical replicates). Black circle, wild type; red square, ΔpdeB/C/D; green triangle, ΔpdeB/C/D ΔpssC; blue cross, ΔpdeB/C/D ΔpssE. […] Overnight cultures grown in BHI were inoculated into HTM liquid medium at A600 of 0.01 and incubated at 30° C. with gentle shaking (rotary shaker, 125 rpm) for 48 h. 1, ΔpdeB/C/D; 2, wild type; 3, ΔpdeB/C/D ΔpssC; 4, ΔpdeB/C/D ΔpssE. […] Aliquots of the HTM-grown cultures were mixed with disinfectant solutions for 10 min at room temperature. […]
EPS is known to protect bacteria from environmental insults. Here, the role of L. monocytogenes EPS in providing tolerance to disinfection and desiccation was evaluated. […]
Solutions of sodium hypochlorite, hydrogen peroxide, and benzalkonium chloride (Sigma-Aldrich and Sigma Life Sciences) were prepared in sterile phosphate-buffered saline with disinfection concentrations of 1600 ppm, 200 mM, and 100 ppm, respectively. […] Serial dilutions were plated on BHI agar and colonies were counted following a 48-h incubation at 37° C.

L. monocytogenes = assay type: cell-based; settings: 1600 ppm, 10 min, room temperature; for killing of wild-type strain EGD-e: HTM-grown culture
Description: Here, the role of L. monocytogenes EPS in providing tolerance to disinfection and desiccation was evaluated. […] To distinguish between the contribution of EPS versus EPS-independent c-di-GMP-responsive agents, included in the tests were the ΔpdeB/C/D ΔpssC mutant characterized by elevated intracellular c-di-GMP levels but defective in EPS production.
Cultures were grown in HTM with 3% glucose at 37° C. for 24 h, at which point small uniform clumps are formed by the ΔpdeB/C/D strain. Aliquots (250 μl; 10^8 cfu/ml) of these cultures were mixed with disinfectants at 1:1 vol ratios in small glass tubes that also contained 0.1 g of acid washed glass beads (Sigma Life Sciences). Following a 10-min exposure to disinfectants at room temperature, D/E neutralizing broth (500 μl; Difco) was added. Samples were vigorously vortexed (for 5 min) and clumps of the ΔpdeB/C/D strain were dispersed due to the action of the glass beads. Serial dilutions were plated on BHI agar and colonies were counted following a 48-h incubation at 37° C.

OCl [sodium hypochlorite]
killing / survivors after disinfectant treatment [1]: highly effective in killing | survival of EPS producing ΔpdeB/C/D mutant relative to wild type (L. monocytogenes): > 10^6 fold | killing of wild-type strain EGD-e (L. monocytogenes): highly effective in killing the wild-type strain | killing of wild-type strain EGD-e (L. monocytogenes; listed as SH): lack of survivors

Reference: patent US10383338B2, “Compositions and methods for making and using hydrolytic enzymes for degrading polysaccharides made by foodborne pathogenic bacteria” (University of Wyoming, priority 2014, dated 2019)
